According to patent publication US20020114804A1, “A METHOD OF TREATING INFECTION OF SUTURES AND PROSTHETIC DEVICES” (priority 1996, published 2002):

Legend:
Type in all cases: cell-based, human
PMNs [1] = assay: PMN migration through plasma clots (plasma gels); details: chemoattractant in lower compartment, 6 hrs
Method: (§1) Becton-Dickinson cell culture inserts (pore sizes 3 or 8 μm: Franklin Lakes, N.J.) were overlaid with the following proteins:
Clotted Plasma: Whole blood was collected and the cellular components were removed by centrifugation. The resulting plasma was mixed with an equal volume of PBS, and 100 μl of this mixture was placed into each insert containing thrombin and allowed to clot as described above. One unit of PPACK in 100 μl PBS then was added and the inserts were washed with 250 μl of PBS.
PMNs were prepared from fresh heparinized blood from healthy adult volunteers by sedimentation on Ficoll-Hypaque gradients. Contaminating red blood cells were removed by hypotonic lysis, as described (7). The purity of PMN isolated by this method is >95% as determined by Wright-Giemsa staining (7). 10^6 PMNs in 250 μl of PBS supplemented with 5.5 mM glucose and 0.1% human serum albumin (PBSG-HSA), were placed in the upper compartment of each insert and incubated for 0-6 hrs at 37° C. in a humidified atmosphere containing 95% air/5% CO2. […] The medium in each lower compartment was collected and its content of PMNs was determined using either a Coulter Counter or a hemocytometer. […] Counts are expressed as the average number of PMNs that migrated into the lower compartment. […]

PMNs [2] = assay: PMN migration through fibrin gels in Boyden-type chemotaxis chambers
Method: as §1
Fibrin gels: 1 Unit of thrombin (a gift from Dr. John Fenton, Albany Medical College, Albany, N.Y.), in 5 μl of PBS was added first to each insert. 0.1 ml phosphate buffered saline supplemented with Ca^2+ and Mg^2+ (PBS) containing 100 μg commercial grade fibrinogen (Calbiochem. Inc., San Diego, Calif.) or purified fibrinogen [a gift from Dr. Jeffery Weitz, (MacMaster University, Hamilton, On.)] was then placed into each 8.2 mm diameter insert on top of the thrombin. The mixture was incubated at 37° C. for 5 min to allow fibrin gel formation (determined by visual inspection). 1 Unit PPACK (Calbiochem Inc., San Diego, Calif.; 10^−5 M final concentration), in 100 μl medium was added to each insert to inhibit thrombin, and gels were washed with 250 μl PBS to remove inactivated thrombin. The fibrin gels formed were about 1 mm thick as measured under a dissecting microscope.
PMNs were prepared from fresh heparinized blood from healthy adult volunteers by sedimentation on Ficoll-Hypaque gradients. Contaminating red blood cells were removed by hypotonic lysis, as described (7). The purity of PMN isolated by this method is >95% as determined by Wright-Giemsa staining (7). 10^6 PMNs in 250 μl of PBS supplemented with 5.5 mM glucose and 0.1% human serum albumin (PBSG-HSA), were placed in the upper compartment of each insert and incubated for 0-6 hrs at 37° C. in a humidified atmosphere containing 95% air/5% CO2. At the times and concentrations specified, chemoattractants/cytokines were added to the top or bottom compartment in 250 μl of PBSG-HSA. At the end of the incubation, the chambers were shaken to dislodge PMNs from the lower surface of the inserts. The medium in each lower compartment was collected and its content of PMNs was determined using either a Coulter Counter or a hemocytometer. Both methods gave similar results. Counts are expressed as the average number of PMNs that migrated into the lower compartment. Unless otherwise indicated, all values reported are the average of six data points from at least 3 independent experiments.

monocytes = assay: Monocyte migration through Matrigel or Matrigel/tenascin coated filters; details: Matrigel alone
Description: Mononuclear cells were isolated by centrifugation of heparinized human blood on Ficoll-Hypaque gradients as described (65, 66). The mononuclear cell fraction was resuspended in RMPI 1640 medium supplemented with 10% pooled human serum or autologous serum and used immediately for monocyte migration studies. For some experiments, monocytes were obtained by centrifugation of whole blood or of white blood cells concentrated from a unit of blood (leukopak), on Nycodenz gradients as described (39). More than 90% of the nucleated cells obtained by this Nycodenz method were monocytes, as assessed by their ability to phagocytose IgG-coated red blood cells.
Cultured monocytes were prepared by allowing 10^7 total mononuclear cells, suspended in 10 ml of RMPI 1640 medium supplemented with 10% pooled human serum (1640+HS), or 10% autologous serum (1640+AS), to adhere to Falcon T-150 tissue culture Petri dishes for 2 h at 37° C. Non-adherent cells were removed by washing, leaving an adherent cell population consisting of greater than 98% monocytes as measured by their capacity to phagocytose IgG coated sheep red blood cells. For migration studies, monocytes were maintained in culture for 24 h in RPMI 1640+HS or AS, and detached from the dishes by gentle pipetting of 10 ml of ice cold phosphate buffered saline (without Ca^2+ or Mg^2+) containing 1.0 mM EDTA. The cells recovered were resuspended in RPMI-1640+HS as described (65).
Cell culture inserts containing polyethylene terephthalate filters, 8-μm pore size (Becton-Dickinson), were overlaid with 0.1 ml of Matrigel (20-25 μg protein/filter) (Collaborative Research, Bedford, Mass.), and incubated at room temperature until they dried. These Matrigel-coated filters were washed with phosphate buffered saline containing 1.0 mM Mg^2+ and 1.0 mM Ca^2+ (PBS). 0.1 ml of a PBS solution (pH 7.2) containing the indicated amount of purified chick brain tenascin was added to some of the inserts. The filters were incubated at room temperature until they dried. These protein-coated filters were washed again with PBS and used within 12 h for cell migration studies. To prepare collagen I-coated inserts, filters were coated with rat tail collagen I (ICN Biochemicals, Costa, Mesa, Calif.) (400 μg/ml in PBS), by adding 0.1 ml of this solution to an insert and incubating the inserts at room temperature for 24 h. Some of these collagen I-coated filters were then incubated with tenascin as described above.
Monocytes: Cell culture inserts were placed in 16 mm wells containing 0.5 mls of RPMI-1640+HS or AS in the presence or absence of a chemoattractant. 0.5 ml of RPMI-1640+HS or AS serum containing between 2-10×10^5 mononuclear phagocytes was added to the upper chamber of the inserts and the inserts were placed in a humidified CO2 incubator at 37° C. After 24 h the medium in the lower chamber was recovered and its cell content assayed using either a Coulter counter or a hemocytometer. […] Cell counts reported are the average number of cells recovered from the medium in the lower compartment of chemotaxis chambers. Over 90% of the cells in the lower chamber were identified as monocytes based on their morphology, their capacity to phagocytose IgG coated sheep red cells, and their staining with fluorescein-conjugated anti α,β monoclonal antibody (Oncogene Sciences, Uniondale, N.Y.). Unless otherwise indicated, all values are the average of duplicate samples run in parallel in a representative experiment. Each experiment was repeated at least three times with similar results.

Question: What does the source list for `CCCCC/C=C\C[C@@H](O)/C=C/C=C/C=C\[C@@H](O)CCCC(=O)O` [LTB4, leukotriene B4]?
Answer: PMN migration through plasma gels formed by thrombin treatment of human plasma (PMNs [1]): migrated; More PMNs migrated through fibrin in response to LTB4 than to IL-8 (PMNs [2]): 25-50%; PMN migration through fibrin gels at supra-optimal concentrations (PMNs [2]; IL-8 at >10^−7 M, supra-optimal LTB4): no indication of PMN desensitization; PMN migration through fibrin gels (in words) (PMNs [2]; chemoattractant in lower compartment, zymosan-activated human plasma 2-10%): migrated; PMN migration through fibrin gels without gradient (PMNs [2]; chemoattractant in upper compartment, or equal concentrations in upper and lower compartments): Few PMNs migrated; Concentration giving maximal PMN migration through fibrin gels (PMNs [2]; in bottom compartment, 6 hrs): 20 nM; PMNs that migrated through fibrin gels within 2 hrs (PMNs [2]; optimal concentration, 2 hrs): Ten; Cultured monocytes that migrated through Matrigel-coated inserts (monocytes): ~15%; Freshly isolated human monocytes that migrated through Matrigel-coated inserts (monocytes): About 20%
